Here are results for 18 molecules from patent US8158633B2, “Phenyl-substituted pyrazolopyrimidines” (Boehringer Ingelheim International GmbH, priority 2002, dated 2012).

The target in data set [1] is T1, PDE9A (Homo sapiens, UniProt O76083). Briefly: PDE inhibition: recombinant PDE9A, [3H]cGMP scintillation proximity assay. The data set is classed as biochemical. Also on record: made in house; host or cells: Sf9 cells, pFASTBAC baculovirus expression system. Particulars: recombinant PDE9A expressed in Sf9 cells; read-out: IC50 (PDE9A-inhibiting effect). The text has this:
Recombinant PDE1C (GenBank/EMBL Accession Number: NM_005020, Loughney et al. J. Biol. Chem. 1996 271, 796-806), PDE2A (GenBank/EMBL Accession Number: NM_002599, Rosman et al. Gene 1997 191, 89-95), PDE3B (GenBank/EMBL Accession Number: NM_000922, Miki et al. Genomics 1996, 36, 476-485), PDE4B (GenBank/EMBL Accession Number: NM_002600, Obernolte et al. Gene. 1993, 129, 239-247), PDE5A (GenBank/EMBL Accession Number: NM_001083, Loughney et al. Gene 1998, 216, 139-147), PDE7B (GenBank/EMBL Accession Number: NM_018945, Hetman et al. Proc. Natl. Acad. Sci. U.S.A. 2000, 97, 472-476), PDE8A (GenBank/EMBL Accession Number: AF—056490, Fisher et al. Biochem. Biophys. Res. Commun. 1998 246, 570-577), PDE9A (Fisher et al., J. Biol. Chem, 1998, 273 (25): 15559-15564), PDE10A (GenBank/EMBL Accession Number: NM_06661, Fujishige et al. J Biol Chem. 1999, 274, 18438-45), PDE11A (GenBank/EMBL Accession Number: NM_016953, Fawcett et al. Proc. Natl. Acad. Sci. 2000, 97, 3702-3707) were expressed in Sf9 cells with the aid of the pFASTBAC baculovirus expression system (GibcoBRL).
The test substances are dissolved in 100% DMSO and serially diluted to determine their in vitro effect on PDE 9A. Typically, serial dilutions from 200 μM to 1.6 μM are prepared (resulting final concentrations in the assay: 4 μM to 0.032 μM). 2 μL portions of the diluted substance solutions are introduced into the wells of microtiter plates (Isoplate; Wallac Inc., Atlanta, Ga.). Then 50 μL of a dilution of the PDE9A preparation described above are added. The dilution of the PDE9A preparation is chosen so that less than 70% of the substrate is converted during the subsequent incubation (typical dilution: 1:10000; dilution buffer: 50 mM Tris/HCl pH 7.5, 8.3 mM MgCl2, 1.7 mM EDTA, 0.2% BSA). The substrate, [8-^3H] guanosine 3′,5′-cyclic phosphate (1 μCi/μL; Amersham Pharmacia Biotech., Piscataway, N.J.) is diluted 1:2000 with assay buffer (50 mM Tris/HCl pH 7.5, 8.3 mM MgCl2, 1.7 mM EDTA) to a concentration of 0.0005 μCi/μL. The enzyme reaction is finally started by adding 50 μL (0.025 μCi) of the diluted substrate. The assay mixtures are incubated at room temperature for 60 min and the reaction is stopped by adding 25 μl of a PDE9A inhibitor (e.g. the inhibitor from preparation example 1, final concentration 10 μM) dissolved in assay buffer. Immediately thereafter, 25 μL of a suspension containing 18 mg/mL Yttrium Scintillation Proximity Beads (Amersham Pharmacia Biotech., Piscataway, N.J.) are added. The microtiter plates are sealed with a film and left to stand at room temperature for 60 min. The plates are then measured for 30 s per well in a Microbeta scintillation counter (Wallac Inc., Atlanta, Ga.). IC50 values are determined from the graphical plot of the substance concentration versus the percentage inhibition.
Background: SPA uses beads or plates that emit light when radiolabelled molecules are held near them.

Data set [2] concerns the target T1, PDE9A. The conditions noted are these: isolated enzyme, concentrations of up to 100 μM; cited from earlier work.
The target in the next data set is T2, Murine PDE9A (Mus musculus, UniProt O70628).
T2 sequence (O70628 1-534): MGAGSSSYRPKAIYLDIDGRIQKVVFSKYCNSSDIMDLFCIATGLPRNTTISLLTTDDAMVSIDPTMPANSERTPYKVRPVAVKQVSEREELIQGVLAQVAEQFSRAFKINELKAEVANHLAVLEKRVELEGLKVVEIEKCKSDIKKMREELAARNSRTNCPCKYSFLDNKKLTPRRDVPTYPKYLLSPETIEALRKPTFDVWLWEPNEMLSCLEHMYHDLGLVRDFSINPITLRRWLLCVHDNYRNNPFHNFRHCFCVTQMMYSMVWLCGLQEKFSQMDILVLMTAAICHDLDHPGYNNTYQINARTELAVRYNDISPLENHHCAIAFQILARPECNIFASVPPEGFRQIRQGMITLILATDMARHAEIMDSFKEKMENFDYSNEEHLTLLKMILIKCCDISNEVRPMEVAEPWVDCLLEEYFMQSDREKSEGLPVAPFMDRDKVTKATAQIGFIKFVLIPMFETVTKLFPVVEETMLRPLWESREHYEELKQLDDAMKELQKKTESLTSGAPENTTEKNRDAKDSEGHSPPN
The conditions noted are these: concentrations below 200 μM; cited from earlier work.

As usually defined, the melting point is the temperature of the solid-liquid transition. A word on the IC50: it is the concentration at which inhibition is half-maximal.

T1 sequence (O76083 whole entry): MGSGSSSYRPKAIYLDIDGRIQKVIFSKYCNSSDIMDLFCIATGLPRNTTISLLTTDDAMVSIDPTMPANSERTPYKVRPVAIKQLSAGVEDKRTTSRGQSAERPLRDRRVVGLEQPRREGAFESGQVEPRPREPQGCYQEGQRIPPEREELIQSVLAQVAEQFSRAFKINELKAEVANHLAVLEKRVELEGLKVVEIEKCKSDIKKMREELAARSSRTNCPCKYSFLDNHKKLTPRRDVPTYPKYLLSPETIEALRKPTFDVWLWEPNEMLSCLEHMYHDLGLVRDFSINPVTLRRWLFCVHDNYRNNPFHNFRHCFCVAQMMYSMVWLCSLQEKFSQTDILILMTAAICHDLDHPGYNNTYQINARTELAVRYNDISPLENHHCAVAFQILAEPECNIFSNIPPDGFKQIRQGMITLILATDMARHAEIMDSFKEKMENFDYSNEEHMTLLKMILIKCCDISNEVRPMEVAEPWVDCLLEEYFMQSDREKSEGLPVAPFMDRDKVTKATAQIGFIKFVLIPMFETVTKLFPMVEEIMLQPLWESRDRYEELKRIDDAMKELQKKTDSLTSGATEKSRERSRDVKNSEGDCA

In turn, `O=c1[nH]c(Cc2cccc(Br)c2)nc2c1cnn2C1CCCC1` [Example 3, 6-(3-Bromobenzyl)-1-cyclopentyl-1,5-dihydro-4H-pyrazolo[3,4-d]pyrimidin-4-one] showed a melting point of 159 °C.

In turn, `Cc1cccc(Cc2nc3c(cnn3C3CCCC3)c(=O)[nH]2)c1` [Example 8, 6-(3-Methylbenzyl)-1-cyclopentyl-1,5-dihydro-4H-pyrazolo[3,4-d]pyrimidin-4-one] registered a melting point of 152 °C.

`S=c1[nH]c(Cc2cccc(Cl)c2)nc2c1cnn2C1CCCC1` [Example 13, 6-(3-Chlorobenzyl)-1-cyclopentyl-1,5-dihydro-4H-pyrazolo[3,4-d]pyrimidine-4-thione] had a melting point of 154 °C. Moreover, the IC50 on PDE9A [1] turned out to be 30 nM.

On to `COc1ccc(C2CNC(=O)C2)cc1OC1CCCC1` (stereo not drawn) [rolipram], for which the “inhibition of human PDE9A” value at PDE9A [2] is “no inhibition”.

With `CC(C)Cn1c(=O)n(C)c(=O)c2[nH]cnc21` [IBMX], the “inhibition of human PDE9A” value on PDE9A [2] is “no inhibition”. Moreover, the “inhibition of murine PDE9A” value at Murine PDE9A is listed as “not inhibited”.

As for `O=c1[nH]c(Cc2ccccc2OC(F)(F)F)nc2c1cnn2C1CCCC1` [Example 14, 1-Cyclopentyl-6-[2-(trifluoromethoxy)benzyl]-1,5-dihydro-4H-pyrazolo[3,4-d]-pyrimidin-4-one], the melting point is 161 °C.

For `OCCN(CCO)c1nc(N2CCCCC2)c2nc(N(CCO)CCO)nc(N3CCCCC3)c2n1` [dipyridamole], the “inhibition of human PDE9A” value on PDE9A [2] is given as “no inhibition”.

For the molecule `CCOC(=O)C1=C[C@]2(CC)CCCN3CCc4c(n1c1ccccc41)[C@@H]32` [vinpocetine], the “inhibition of human PDE9A” value at PDE9A [2] is reported as “no inhibition”.

Turning to `CCC(CC)n1ncc2c(=O)[nH]c(Cc3cccc(C(F)(F)F)c3)nc21` [Example 11, 1-(1-Ethylpropyl)-6-[3-(trifluoromethyl)benzyl]-1,5-dihydro-4H-pyrazolo[3,4-d]-pyrimidin-4-one], the melting point was determined as 120 °C.

As for `CCC(CC)n1ncc2c(=O)[nH]c(Cc3cccc(C)c3)nc21` [Example 10, 6-(3-Methylbenzyl)-1-(1-ethylpropyl)-1,5-dihydro-4H-pyrazolo[3,4-d]pyrimidin-4-one], the melting point came to 128 °C. Also, at PDE9A [1], the IC50 was 64 nM.

For `CCC(CC)n1ncc2c(=O)[nH]c(Cc3cccc(Cl)c3)nc21` [Example 7, 6-(3-Chlorobenzyl)-1-(1-ethylpropyl)-1,5-dihydro-4H-pyrazolo[3,4-d]pyrimidin-4-one], the melting point was found to be 138 °C.

`O=c1[nH]c(Cc2cccc(Cl)c2Cl)nc2c1cnn2C1CCCC1` [Example 6, 6-(2,3-Dichlorobenzyl)-1-cyclopentyl-1,5-dihydro-4H-pyrazolo[3,4-d]pyrimidin-4-one] showed a melting point of 181 °C.

Turning to `O=c1[nH]c(Cc2cc(Cl)cc(Cl)c2)nc2c1cnn2C1CCCC1` [Example 5, 6-(3,5-Dichlorobenzyl)-1-cyclopentyl-1,5-dihydro-4H-pyrazolo[3,4-d]pyrimidin-4-one], the melting point turned out to be 177 °C.

Consider `CC(=O)Nc1ccc(-c2c[nH]c(=O)cn2)cc1` [SKF94120], for which, on PDE9A [2], the “inhibition of human PDE9A” value was “no inhibition”.

Consider `O=c1[nH]c(Cc2ccc(Cl)c(Cl)c2)nc2c1cnn2C1CCCC1` [Example 4, 6-(3,4-Dichlorobenzyl)-1-cyclopentyl-1,5-dihydro-4H-pyrazolo[3,4-d]pyrimidin-4-one], for which the melting point came out at 198 °C. In addition, the IC50 on PDE9A [1] was determined as 30 nM.

Molecule `O=c1[nH]c(Cc2cccc(Cl)c2)nc2c1cnn2C1CCCC1` [Example 1, 6-(3-Chlorobenzyl)-1-cyclopentyl-1,5-dihydro-4H-pyrazolo[3,4-d]pyrimidin-4-one] came in with a melting point of 159 °C. For the same molecule, on PDE9A [1], the IC50 was 20 nM.

As to `CCC(CC)n1ncc2c(=O)[nH]c(Cc3cc(Cl)ccc3Cl)nc21` [Example 9, 6-(2,5-Dichlorobenzyl)-1-(1-ethylpropyl)-1,5-dihydro-4H-pyrazolo[3,4-d]pyrimidin-4-one], the melting point was determined as 134 °C.

Molecule `O=c1[nH]c(Cc2ccccc2F)nc2c1cnn2C1CCCC1` [Example 2, 6-(2-Fluorobenzyl)-1-cyclopentyl-1,5-dihydro-4H-pyrazolo[3,4-d]pyrimidin-4-one] had a melting point of 180 °C. In addition, on PDE9A [1], the IC50 is 30 nM.
